Values joined by “and” are separate entries in the source; they are usually repeats but may differ in a detail not shown here. Identical values can stand only once.
Tested on: 454973-116-R2-J3-PDC complex spheroid viability
Assay: Anticancer human tumor 454973-116-R2-J3-PDC patient-derived pancreatic carcinoma cell line growth inhibition [POLQ]
Settings: for viability, T/C: stronger effect = lower value
Description: Multicellular complex tumor spheroid response to Polymerase (POL) inhibitors (novobiocin, ART-558, RP6685) in combination with a variety of drugs and investigational agents in selected tumor cell lines
The POL inhibitors (novobiocin, ART-558, and RP6685) were evaluated both individually and in combination with standard of care and investigational anticancer small molecules within a complex spheroid model of solid tumors. . Complex spheroids include a stromal component modeled by human endothelial cells (HUVEC) and fibroblasts modeled by human mesenchymal stem cells (MSCs). The concentration ranges selected for each drug and investigational agent were based upon clinically achievable concentrations if the clinical Cmax of the agent was known.
Compounds. The drugs and investigational agents: novobiocin (NSC847541), ART-558 (NSC835418), RP-6685 (NSC848927), peposertib (NSC802822), ceralasertib (NSC780249), elimusertib (NSC800525), camonsertib (NSC841442), AZD-1390 (NSC803789), olaparib (NSC753686), talazoparib (NSC767125), rucaparib (NSC756644), sotorasib (NSC818433), MRTX-1133 (NSC836407), SN-38 (NSC673596), topotecan (NSC609699), epotoside (NSC141540), doxorubicin (NSC123127), gemcitabine (NSC613327), 5-fluorouracil (NSC19893), paclitaxel (NSC125973), vemurafenib (NSC761431), MSA-2 (NSC828583), SN-011 (NSC837082), adavosertib (NSC754352), prexasertib (NSC758257), carboplatin (NSC241240) and oxaliplatin (NSC266046), were obtained from the National Cancer Institute (NCI) Developmental Therapeutics Program Chemical Repository (21). The FDA-approved anticancer drug set is available from the Developmental Therapeutics Program at https://dtp.cancer.gov/organization/dscb/obtaining/. […] The stock solutions were prepared in dimethyl sulfoxide (DMSO, Sigma-Aldrich, St. Louis, MO, cat. D2650), except for the platinum compounds which were prepared in saline (Quality Biological, Gaithersburg, MD, cat. 114-055-101), at 800-fold the tested concentration and stored at -70 degrees C prior to their use. All drugs and investigational agents were tested over a range starting from a high concentration at or near the clinical Cmax and decreasing in half-log increments. If the clinical Cmax for an agent had not been determined, the highest concentration tested was 10 microM, except for SN-38, which was tested at a high concentration of 1 microM.
Cell Culture. All cells were maintained in an incubator at 37 degrees C and 5% CO2 with 95% humidity. The PDC lines were cultured according to standard operating procedures established by the NCI PDMR (https://pdmr.cancer.gov). Table 3 of the manuscript, lists the cell lines along with the number of the three cell types plated to form the mct-spheroids and media for tumor cell growth. After thawing, all PDC lines, except 997537-175-T-J1-PDC and 415267-285-R-J2-PDC, were cultured in Matrigel-coated flasks prepared with a working solution of 1X Ham's F-12 nutrient mix, without supplementation (Thermo Fisher Scientific, cat. 11765054), 100 U/mL penicillin-streptomycin (Thermo Fisher Scientific, cat. 15140122), and 2.5% Matrigel (Corning Inc., Corning, NY, cat. 354248) for the first three passages. The two PDC lines 997537-175-T-J1-PDC and 415267-285-R-J2-PDC were cultured on uncoated flasks. The 857933-349-R-J2-PDC line was cultured in 6C/Colon 1B media containing advanced DMEM/F-12 (Thermo Fisher Scientific, cat. 12634028), 10 mM HEPES (Thermo Fisher Scientific, cat. 15630080), 1X GlutaMAX supplement (Thermo Fisher Scientific, cat. 35050061), 0.1 mg/mL primocin (InvivoGen, San Diego, CA, cat. ant-pm-2), 10% defined fetal bovine serum, heat inactivated (HyClone Laboratories Inc., Logan, UT, cat. SH30070.03HI), 50% L-WRN conditioned media (ATCC, cat. CRL-3276), 1.25 mM N-Acetyl-L-cysteine (Sigma-Aldrich, cat. A9165), 10 mM nicotinamide (Sigma-Aldrich, cat. N0636), 1X B-27 supplement (Thermo Fisher Scientific, cat. 17504044), 1X N-2 supplement (Thermo Fisher Scientific, cat. […]

[1] = curve of first compound, second compound 0.0316 µM
[2] = curve of first compound, second compound 0.1 µM
[3] = curve of first compound, second compound 0.316 µM
[4] = curve of first compound, second compound 1 µM
[5] = curve of first compound, second compound 3.16 µM
[6] = curve of first compound, second compound 10 µM
[7] = second compound 0.0316 µM, first compound 0.0316 µM
[8] = second compound 0.0316 µM, first compound 0.1 µM
[9] = second compound 0.0316 µM, first compound 0.316 µM
[10] = second compound 0.0316 µM, first compound 1 µM
[11] = second compound 0.0316 µM, first compound 3.16 µM
[12] = second compound 0.0316 µM, first compound 10 µM
[13] = second compound 0.1 µM, first compound 0.0316 µM
[14] = second compound 0.1 µM, first compound 0.1 µM
[15] = second compound 0.1 µM, first compound 0.316 µM
[16] = second compound 0.1 µM, first compound 1 µM
[17] = second compound 0.1 µM, first compound 3.16 µM
[18] = second compound 0.1 µM, first compound 10 µM
[19] = second compound 0.316 µM, first compound 0.0316 µM
[20] = second compound 0.316 µM, first compound 0.1 µM
[21] = second compound 0.316 µM, first compound 0.316 µM
[22] = second compound 0.316 µM, first compound 1 µM
[23] = second compound 0.316 µM, first compound 3.16 µM
[24] = second compound 0.316 µM, first compound 10 µM
[25] = second compound 1 µM, first compound 0.0316 µM
[26] = second compound 1 µM, first compound 0.1 µM
[27] = second compound 1 µM, first compound 0.316 µM
[28] = second compound 1 µM, first compound 1 µM
[29] = second compound 1 µM, first compound 3.16 µM
[30] = second compound 1 µM, first compound 10 µM
[31] = second compound 3.16 µM, first compound 0.0316 µM
[32] = second compound 3.16 µM, first compound 0.1 µM
[33] = second compound 3.16 µM, first compound 0.316 µM
[34] = second compound 3.16 µM, first compound 1 µM
[35] = second compound 3.16 µM, first compound 3.16 µM
[36] = second compound 3.16 µM, first compound 10 µM
[37] = second compound 10 µM, first compound 0.0316 µM
[38] = second compound 10 µM, first compound 0.1 µM
[39] = second compound 10 µM, first compound 0.316 µM
[40] = second compound 10 µM, first compound 1 µM
[41] = second compound 10 µM, first compound 3.16 µM
[42] = second compound 10 µM, first compound 10 µM
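Note: spheroids exposed to drugs for seven days before measurement.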
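Throughout, for viability, T/C: percent viability relative to DMSO vehicle control wells taken as 100%.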

CC1COCCN1c1cc(C2(O)CC3CCC(C2)O3)c2cnn(-c3ccn[nH]3)c2n1 (stereo not drawn) + Cc1cccc(N(C)C(=O)C2C(O)CCN2c2nc(C)cc(C(F)(F)F)c2C#N)c1
IC50 [1]: 190 nM
IC50 [2]: 212 nM
IC50 [3]: 199 nM
IC50 [4]: 196 nM
IC50 [5]: 182 nM
IC50 [6]: 163 nM
viability, T/C [7]: 91.2%
viability, T/C [8]: 70%
viability, T/C [9]: 33.4%
viability, T/C [10]: 22.8%
viability, T/C [11]: 20.6%
viability, T/C [12]: 13.2%
viability, T/C [13]: 90.6%
viability, T/C [14]: 80.9%
viability, T/C [15]: 33.5%
viability, T/C [16]: 20.6%
viability, T/C [17]: 21.5%
viability, T/C [18]: 15.5%
viability, T/C [19]: 93.9%
viability, T/C [20]: 73.1%
viability, T/C [21]: 34.3%
viability, T/C [22]: 21.2%
viability, T/C [23]: 22.8%
viability, T/C [24]: 15.8%
viability, T/C [25]: 102%
viability, T/C [26]: 73%
viability, T/C [27]: 33%
viability, T/C [28]: 21.9%
viability, T/C [29]: 20.1%
viability, T/C [30]: 14.5%
viability, T/C [31]: 98.5%
viability, T/C [32]: 67.6%
viability, T/C [33]: 34.7%
viability, T/C [34]: 16.8%
viability, T/C [35]: 26%
viability, T/C [36]: 16.2%
viability, T/C [37]: 105%
viability, T/C [38]: 60.5%
viability, T/C [39]: 36.7%
viability, T/C [40]: 21.4%
viability, T/C [41]: 28.3%
viability, T/C [42]: 17.2%

Nc1ccn(C2OC(CO)C(O)C2(F)F)c(=O)n1 (stereo not drawn)
viability, T/C (compound 0.0316 µM): 12.9% and 5.69% and 16.6%
viability, T/C (compound 0.1 µM): 14.2% and 8.25% and 9.25%
viability, T/C (compound 0.316 µM): 11.2% and 8.63% and 12.6%
viability, T/C (compound 1 µM): 14.3% and 7.78% and 11.7%
viability, T/C (compound 3.16 µM): 12% and 9.22% and 12.5%
viability, T/C (compound 10 µM): 11.3% and 5.91% and 10.8%
IC50 (curve of compound): < 31.6 nM

CCCS(=O)(=O)Nc1ccc(F)c(C(=O)c2c[nH]c3ncc(-c4ccc(Cl)cc4)cc23)c1F
viability, T/C (compound 0.0316 µM): 111% and 107% and 105%
viability, T/C (compound 0.1 µM): 107% (2×) and 110%
viability, T/C (compound 0.316 µM): 108% (2×) and 115%
viability, T/C (compound 1 µM): 109% and 111% and 104%
viability, T/C (compound 3.16 µM): 116% and 110% and 112%
viability, T/C (compound 10 µM): 33% and 37.7% and 50.1%
IC50 (curve of compound): 7770 nM and 8190 nM and > 10000 nM

COc1ccc([C@@H](O)c2cc(-c3ncnc4cc(N5CCOCC5)ccc34)c(F)cc2Cl)nn1 + COC1C(OC(N)=O)C(O)C(Oc2ccc3c(O)c(NC(=O)c4ccc(O)c(CC=C(C)C)c4)c(=O)oc3c2C)OC1(C)C
IC50 [1]: 9500 nM
IC50 [2]: > 10000 nM
IC50 [3]: > 10000 nM
IC50 [4]: > 10000 nM
IC50 [5]: > 10000 nM
IC50 [6]: > 10000 nM
viability, T/C [7]: 97.9%
viability, T/C [8]: 99.5%
viability, T/C [9]: 99%
viability, T/C [10]: 94.4%
viability, T/C [11]: 75.2%
viability, T/C [12]: 48.8%
viability, T/C [13]: 104%
viability, T/C [14]: 106%
viability, T/C [15]: 96.7%
viability, T/C [16]: 98.2%
viability, T/C [17]: 73.2%
viability, T/C [18]: 52.5%
viability, T/C [19]: 112%
viability, T/C [20]: 107%
viability, T/C [21]: 98.3%
viability, T/C [22]: 95%
viability, T/C [23]: 71.7%
viability, T/C [24]: 51.3%
viability, T/C [25]: 113%
viability, T/C [26]: 102%
viability, T/C [27]: 115%
viability, T/C [28]: 103%
viability, T/C [29]: 65.6%
viability, T/C [30]: 51.4%
viability, T/C [31]: 112%
viability, T/C [32]: 107%
viability, T/C [33]: 98.8%
viability, T/C [34]: 88.3%
viability, T/C [35]: 78.8%
viability, T/C [36]: 54.2%
viability, T/C [37]: 116%
viability, T/C [38]: 93.3%
viability, T/C [39]: 93.3%
viability, T/C [40]: 83.5%
viability, T/C [41]: 76.3%
viability, T/C [42]: 50.6%
